{"source": "the NIST ThermoML archive (doi:10.1021/acs.jced.5b00192)", "key": {"[1]": {"test": "Molar enthalpy of transition or fusion", "conditions": "DSC"}, "[2]": {"conditions": "DTA"}}, "note": "± gives the expanded uncertainty stated by the source.", "data": [{"smiles": "O=C1c2cccc(O)c2C(=O)c2c(O)cccc21", "note": "[1,8-dihydroxyanthraquinone]", "values": [{"measurement": "Molar enthalpy of transition or fusion", "setting": "[1]; Crystal 1", "result": "4.79 ± 0.179", "unit": "kcal/mol"}, {"measurement": "Molar enthalpy of transition or fusion", "setting": "[1]; Crystal 2", "result": "1.19 ± 0.0454", "unit": "kcal/mol"}, {"measurement": "Normal melting temperature", "setting": "[2]; Crystal 1", "result": "195.38 ± 1.5", "unit": "°C"}, {"measurement": "Triple point temperature", "setting": "[2]; Crystal 2", "result": "435.39 ± 0.86", "unit": "K"}]}]}
